# Reference: EP4729518A1, “CRYSTAL FORM OF METHIONINE ADENOSYLTRANSFERASE 2A HETEROCYCLIC INHIBITOR, PREPARATION METHOD THEREFOR, AND USE THEREOF” (Nanjing Chia Tai Tianqing Pharmaceutical Co., Ltd., priority 2023, dated 2024)
# Experiments:
# [1] = Heating experiment via DSC followed by XRD; format: physicochemical
# Text: The heated samples were then collected and subjected to XRD analysis. Table 27: Summary of heating test results for various crystal forms
# [2] = Solid state stability of crystal forms (XRD and HPLC); format: physicochemical
# Procedure: Samples of the crystal forms B, H, and L were placed under the conditions of 25 °C/60% RH and 40 °C/75% RH for 17 days, and then the physicochemical stability of the samples was tested using XRD and HPLC. Table 24: Summary of solid state stability evaluation of crystal forms
structure (smiles),measurement,setting,value
"Cn1cc2cc(-c3nn4ccc(C5CC5)nc4c(-c4ccc(OC(F)F)cc4)c3=O)ccc2n1 [Crystal form M, 2-cyclopropyl-9-[4-(difluoromethoxy)phenyl]-7-(2-methyl-2H-indazol-5-yl)-8H-pyrimido[1,2-b]pyridazin-8-one]",After heating (crystal form),[1]; Heating temperature 150 °C,Crystal form A
"Cn1cc2cc(-c3nn4ccc(C5CC5)nc4c(-c4ccc(OC(F)F)cc4)c3=O)ccc2n1 [Crystal form O, 2-cyclopropyl-9-[4-(difluoromethoxy)phenyl]-7-(2-methyl-2H-indazol-5-yl)-8H-pyrimido[1,2-b]pyridazin-8-one]",After heating (crystal form),[1]; Heating temperature 150 °C,Crystal form A
"Cn1cc2cc(-c3nn4ccc(C5CC5)nc4c(-c4ccc(OC(F)F)cc4)c3=O)ccc2n1 [Crystal form Q, 2-cyclopropyl-9-[4-(difluoromethoxy)phenyl]-7-(2-methyl-2H-indazol-5-yl)-8H-pyrimido[1,2-b]pyridazin-8-one]",After heating (crystal form),[1]; Heating temperature 130 °C,Crystal form A
"Cn1cc2cc(-c3nn4ccc(C5CC5)nc4c(-c4ccc(OC(F)F)cc4)c3=O)ccc2n1 [Crystal form B, 2-cyclopropyl-9-[4-(difluoromethoxy)phenyl]-7-(2-methyl-2H-indazol-5-yl)-8H-pyrimido[1,2-b]pyridazin-8-one]",After heating (crystal form),[1]; Heating temperature 250 °C,Crystal form A
same,Crystal form change,[2]; 0 day,No
same,Purity,[2]; 0 day,98.69%
same,change in crystal form or purity,[2]; 25 °C/60% RH for 17 days,no change in either crystal form or purity
same,Crystal form change,[2]; 25 °C/60% RH/17 days,No
same,Purity,[2]; 25 °C/60% RH/17 days,98.69%
same,change in crystal form or purity,[2]; 40 °C/75% RH for 17 days,no change in either crystal form or purity
same,Crystal form change,[2]; 40 °C/75% RH/17 days,No
same,Purity,[2]; 40 °C/75% RH/17 days,98.68%
"Cn1cc2cc(-c3nn4ccc(C5CC5)nc4c(-c4ccc(OC(F)F)cc4)c3=O)ccc2n1 [Crystal form N, 2-cyclopropyl-9-[4-(difluoromethoxy)phenyl]-7-(2-methyl-2H-indazol-5-yl)-8H-pyrimido[1,2-b]pyridazin-8-one]",After heating (crystal form),[1]; Heating temperature 100 °C,Crystal form A
"Cn1cc2cc(-c3nn4ccc(C5CC5)nc4c(-c4ccc(OC(F)F)cc4)c3=O)ccc2n1 [Crystal form A, 2-cyclopropyl-9-[4-(difluoromethoxy)phenyl]-7-(2-methyl-2H-indazol-5-yl)-8H-pyrimido[1,2-b]pyridazin-8-one]",stability on heating,[1]; after heating (>100 °C),high-temperature stable crystal form
"Cn1cc2cc(-c3nn4ccc(C5CC5)nc4c(-c4ccc(OC(F)F)cc4)c3=O)ccc2n1 [Crystal form P, 2-cyclopropyl-9-[4-(difluoromethoxy)phenyl]-7-(2-methyl-2H-indazol-5-yl)-8H-pyrimido[1,2-b]pyridazin-8-one]",After heating (crystal form),[1]; Heating temperature 150 °C,Crystal form A
"Cn1cc2cc(-c3nn4ccc(C5CC5)nc4c(-c4ccc(OC(F)F)cc4)c3=O)ccc2n1 [Crystal form I, 2-cyclopropyl-9-[4-(difluoromethoxy)phenyl]-7-(2-methyl-2H-indazol-5-yl)-8H-pyrimido[1,2-b]pyridazin-8-one]",After heating (crystal form),[1]; Heating temperature 150 °C,Crystal form A
"Cn1cc2cc(-c3nn4ccc(C5CC5)nc4c(-c4ccc(OC(F)F)cc4)c3=O)ccc2n1 [Crystal form H, 2-cyclopropyl-9-[4-(difluoromethoxy)phenyl]-7-(2-methyl-2H-indazol-5-yl)-8H-pyrimido[1,2-b]pyridazin-8-one]",After heating (crystal form),[1]; Heating temperature 250 °C,Crystal form A
same,Crystal form change,[2]; 0 day,No
same,Purity,[2]; 0 day,98.62%
same,change in crystal form or purity,[2]; 25 °C/60% RH for 17 days,"no change in purity, but had a decrease in crystallinity"
same,Crystal form change,[2]; 25 °C/60% RH/17 days,"No change in crystal form was observed, but the crystallinity decreased"
same,Purity,[2]; 25 °C/60% RH/17 days,98.59%
same,change in crystal form or purity,[2]; 40 °C/75% RH for 17 days,no change in either crystal form or purity
same,Crystal form change,[2]; 40 °C/75% RH/17 days,No
same,Purity,[2]; 40 °C/75% RH/17 days,98.59%
"Cn1cc2cc(-c3nn4ccc(C5CC5)nc4c(-c4ccc(OC(F)F)cc4)c3=O)ccc2n1 [Crystal form D, 2-cyclopropyl-9-[4-(difluoromethoxy)phenyl]-7-(2-methyl-2H-indazol-5-yl)-8H-pyrimido[1,2-b]pyridazin-8-one]",After heating (crystal form),[1]; Heating temperature 150 °C,Crystal forms A + H + L
